Measurements taken from ChEMBL document CHEMBL4406824, “Phenolic N-monosubstituted carbamates: Antitubercular and toxicity evaluation of multi-targeting compounds” (Eur J Med Chem, 2019).
In brackets after ≈: the same amount, converted by molar mass.

Columns and labels:
Type in all cases: functional
[1] = system: Mycobacterium tuberculosis; experiment: Antimycobacterial activity against multi drug resistant Mycobacterium tuberculosis 9449/2006 after 21 days; details: 9449/2006, 504 h
[2] = system: Mycobacterium tuberculosis; experiment: Antimycobacterial activity against multi drug resistant Mycobacterium tuberculosis 9449/2006 after 14 days; details: 9449/2006, 336 h
[3] = system: Mycobacterium tuberculosis; experiment: Antimycobacterial activity against multi drug resistant Mycobacterium tuberculosis 7357/1998 after 21 days; details: 7357/1998, 504 h
[4] = system: Mycobacterium tuberculosis; experiment: Antimycobacterial activity against multi drug resistant Mycobacterium tuberculosis 7357/1998 after 14 days; details: 7357/1998, 336 h
[5] = system: Mycobacterium tuberculosis; experiment: Antimycobacterial activity against multi drug resistant Mycobacterium tuberculosis 8666/2010 after 14 days; details: 8666/2010, 336 h
[6] = system: Mycobacterium tuberculosis; experiment: Antimycobacterial activity against multi drug resistant Mycobacterium tuberculosis 8666/2010 after 21 days; details: 8666/2010, 504 h
[7] = system: Mycobacterium tuberculosis; experiment: Antimycobacterial activity against multi drug resistant Mycobacterium tuberculosis 234/2005 after 14 days; details: 234/2005, 336 h
[8] = system: Mycobacterium tuberculosis; experiment: Antimycobacterial activity against multi drug resistant Mycobacterium tuberculosis 234/2005 after 21 days; details: 234/2005, 504 h
[9] = system: Mycobacterium tuberculosis; experiment: Antimycobacterial activity against multi drug resistant Mycobacterium tuberculosis Praha 1 after 14 days; details: Praha 1, 336 h
[10] = system: Mycobacterium tuberculosis; experiment: Antimycobacterial activity against multi drug resistant Mycobacterium tuberculosis Praha 1 after 21 days; details: Praha 1, 504 h
[11] = system: Mycobacterium tuberculosis; experiment: Antimycobacterial activity against multi drug resistant Mycobacterium tuberculosis Praha 4 after 14 days; details: Praha 4, 336 h
[12] = system: Mycobacterium tuberculosis; experiment: Antimycobacterial activity against multi drug resistant Mycobacterium tuberculosis Praha 4 after 21 days; details: Praha 4, 504 h

SMILES | MIC [1] [µM] | MIC [2] [µM] | MIC [3] [µM] | MIC [4] [µM] | MIC [5] [µM] | MIC [6] [µM] | MIC [7] [µM] | MIC [8] [µM] | MIC [9] [µM] | MIC [10] [µM] | MIC [11] [µM] | MIC [12] [µM]
O=C(Nc1ccccc1)Oc1ccc(Cl)cc1C(=O)Nc1ccc(C(F)(F)F)cc1 | 1 (≈ 0.435 µg/mL) | 1 (≈ 0.435 µg/mL) | 1 (≈ 0.435 µg/mL) | 0.5 (≈ 0.217 µg/mL) | 0.5 (≈ 0.217 µg/mL) | 1 (≈ 0.435 µg/mL) | 1 (≈ 0.435 µg/mL) | 1 (≈ 0.435 µg/mL) | 0.5 (≈ 0.217 µg/mL) | 1 (≈ 0.435 µg/mL) | 0.5 (≈ 0.217 µg/mL) | 1 (≈ 0.435 µg/mL)
O=C(NCCc1ccccc1)Oc1ccc(Cl)cc1C(=O)Nc1ccc(C(F)(F)F)cc1 | 2 (≈ 0.926 µg/mL) | 2 (≈ 0.926 µg/mL) | 2 (≈ 0.926 µg/mL) | 1 (≈ 0.463 µg/mL) | 2 (≈ 0.926 µg/mL) | 2 (≈ 0.926 µg/mL) | 2 (≈ 0.926 µg/mL) | 2 (≈ 0.926 µg/mL) | 1 (≈ 0.463 µg/mL) | 1 (≈ 0.463 µg/mL) | 2 (≈ 0.926 µg/mL) | 2 (≈ 0.926 µg/mL)
O=C(NC12CC3CC(CC(C3)C1)C2)Oc1ccc(Cl)cc1C(=O)Nc1ccc(C(F)(F)F)cc1 | 1 (≈ 0.493 µg/mL) | 1 (≈ 0.493 µg/mL) | 1 (≈ 0.493 µg/mL) | 0.5 (≈ 0.246 µg/mL) | 0.5 (≈ 0.246 µg/mL) | 1 (≈ 0.493 µg/mL) | 1 (≈ 0.493 µg/mL) | 1 (≈ 0.493 µg/mL) | 0.5 (≈ 0.246 µg/mL) | 1 (≈ 0.493 µg/mL) | 0.5 (≈ 0.246 µg/mL) | 1 (≈ 0.493 µg/mL)
O=C(NC1CCCCC1)Oc1ccc(Cl)cc1C(=O)Nc1ccc(C(F)(F)F)cc1 | 1 (≈ 0.441 µg/mL) | 0.5 (≈ 0.22 µg/mL) | 1 (≈ 0.441 µg/mL) | 0.5 (≈ 0.22 µg/mL) | 0.5 (≈ 0.22 µg/mL) | 1 (≈ 0.441 µg/mL) | 0.5 (≈ 0.22 µg/mL) | 1 (≈ 0.441 µg/mL) | 0.5 (≈ 0.22 µg/mL) | 1 (≈ 0.441 µg/mL) | 0.5 (≈ 0.22 µg/mL) | 1 (≈ 0.441 µg/mL)
